Patent US11332472B2, “Substituted piperidines as inhibitors of ubiquitin specific protease 7” (LES LABORATOIRES SERVIER, priority 2017, dated 2022)

Molecular target: T1, USP7 (Homo sapiens, UniProt Q93009, C315A)
T1 construct: 0.25 nM His-His-USP7 (aa208-560, [C315A]) was incubated with compound; His-His (N)
Assay: Inhibition of USP7 by Fluorescence Intensity (FLINT) readings, Ubiquitin-Rhodamine-110 substrate
Type: biochemical
Conditions: 0.25 nM His-His-USP7 (aa208-560, [C315A]); compound 60 minutes at 30° C.; 500 nM Ubiquitin-Rhodamine substrate; 11-point curves
Experimental: USP7 activity was measured using Rhodamine-110 c-terminal labelled Ubiquitin as a substrate (Viva Biosciences). Incubation with USP7 results in the release of Rhodamine-110 leading to an increase in fluorescence which can be used in the continuous measurement of USP7 activity.
The USP7 reactions were performed in a 50 μL volume, in 384 well black solid low binding plates (Corning #3575). The reaction buffer consisted of 100 mM Bicine pH 8.0, 0.01% TritonX 100, 1 mM TCEP, and 10% DMSO.
0.25 nM His-His-USP7 (aa208-560, [C315A]) was incubated with compound (final concentration 10% DMSO) for 60 minutes at 30° C. The reaction was then initiated by the addition of 500 nM Ubiquitin-Rhodamine-10 substrate and the plate read every 3 minutes for 21 minutes to measure the release of Rhodamine-110. Fluorescence Intensity (FLINT) readings were measured using a Biomek Neo plate reader (Ex. 485 nm. Em. 535 nm).
The inhibition of increasing doses of compound was expressed as a percentage reduction in kinetic rate compared to the kinetic rates established between ‘DMSO only’ and ‘total inhibition’ controls (no USP7). The inhibitory concentrations that gave a 50% reduction in kinetic rate (IC50) were determined, from 11-point dose response curves, in XL-Fit using a 4-Parameter Logistic Model (Sigmoidal Dose-Response Model).

T1 sequence (Q93009 208-560 C315A): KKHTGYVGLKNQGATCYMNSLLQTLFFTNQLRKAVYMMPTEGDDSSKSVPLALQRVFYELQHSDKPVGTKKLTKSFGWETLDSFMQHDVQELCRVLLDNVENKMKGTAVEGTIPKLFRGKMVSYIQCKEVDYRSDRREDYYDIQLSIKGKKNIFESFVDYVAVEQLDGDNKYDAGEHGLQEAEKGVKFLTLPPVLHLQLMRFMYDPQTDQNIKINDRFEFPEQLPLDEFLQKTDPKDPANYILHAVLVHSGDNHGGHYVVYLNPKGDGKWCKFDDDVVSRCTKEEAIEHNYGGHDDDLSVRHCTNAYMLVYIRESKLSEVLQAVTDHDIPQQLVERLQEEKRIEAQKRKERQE

Row | IC50 | SMILES
1 | 83.8 nM | COc1ccc(-n2ccc3c(=O)n(CC4(O)CCN(C(=O)[C@@H]5CCC(F)(F)C[C@H]5c5cccs5)CC4)cnc32)cc1 (single isomer, unassigned) [Example 73, 3-[[1-[trans-4,4-difluoro-2-(2-thienyl)cyclohexanecarbonyl]-4-hydroxy-4-piperidyl]methyl]-7-(4-methoxyphenyl)pyrrolo[2,3-d]pyrimidin-4-one]
2 | 162 nM | O=C([C@@H]1CCC(F)(F)C[C@H]1c1cccs1)N1CCC(O)(Cn2cnc3c(ccn3-c3ccccc3)c2=O)CC1 (relative stereo) [Example 71, 3-[[1-[trans-4,4-difluoro-2-(2-thienyl)cyclohexanecarbonyl]-4-hydroxy-4-piperidyl]methyl]-7-phenyl-pyrrolo[2,3-d]pyrimidin-4-one]
3 | 612 nM | COc1ccc(-n2ccc3c(=O)n(CC4(O)CCN(C(=O)[C@@H]5CC(F)(F)CC[C@H]5c5ccccc5)CC4)cnc32)cc1 (single isomer, unassigned) [Example 29, 3-[[1-[trans-5,5-difluoro-2-phenyl-cyclohexanecarbonyl]-4-hydroxy-4-piperidyl]methyl]-7-(4-methoxyphenyl)pyrrolo[2,3-d]pyrimidin-4-one]
4 | 2570 nM | COc1ccc(-n2ccc3c(=O)n(CC4(O)CCN(C(=O)C5CCCN5c5ccccc5)CC4)cnc32)cc1 (stereo not shown) [Example 11, 3-[[4-hydroxy-1-(1-phenylpyrrolidine-2-carbonyl)-4-piperidyl]methyl]-7-(4-methoxyphenyl)pyrrolo[2,9-d]pyrimidin-4-one]
5 | 10100 nM | O=C([C@@H]1CCCC(F)(F)[C@H]1c1ccccc1)N1CCC(O)(Cn2cnc3c(ccn3-c3ccccc3)c2=O)CC1 (relative stereo) [Example 51, 3-[[1-[trans-3,3-difluo-2-phenyl-cyclohexanecarbonyl]-4-hydroxy-4-piperidyl]methyl]-7-phenyl-pyrrolo[2,3-d]pyrimidin-4-one]
6 | 226 nM | Nc1ccc2ncn(CC3(O)CCN(C(=O)[C@@H]4CCCC[C@H]4c4ccccc4)CC3)c(=O)c2n1 (relative stereo) [Example 100, 6-amino-3-[[4-hydroxy-1-(trans-2-phenylcyclohexanecarbonyl)-4-piperidyl]methyl]pyrido[3,2-d]pyrimidin-4-one]
7 | 21.7 nM | O=C(Cc1cccc(O)c1)Nc1ccc2ncn(CC3(O)CCN(C(=O)[C@@H]4CCCC[C@H]4c4ccccc4)CC3)c(=O)c2n1 (relative stereo) [Example 104, 2-(3-hydroxyphenyl)-N-[3-[[4-hydroxy-1-(trans-2-phenylcyclohexanecarbonyl)-4-piperidyl]methyl]-4-oxo-pyrido[3,2-d]pyrimidin-6-yl]acetamide]
8 | 682 nM | COc1ccc(-n2ccc3c(=O)n(CC4(O)CCN(C(=O)[C@@H]5C(C)=CCC[C@H]5c5ccsc5)CC4)cnc32)cc1 (single isomer, unassigned) [Example 62, 3-[[4-hydroxy-1-[trans-2-methyl-6-(3-thienyl)cyclohex-2-ene-1-carbonyl]-4-piperidyl]methyl]-7-(4-methoxyphenyl)pyrrolo[2,3-d]pyrimidin-4-one]
9 | 916 nM | O=C([C@@H]1CCCC[C@H]1c1ccsc1)N1CCC(O)(Cn2cnc3cccnc3c2=O)CC1 (relative stereo) [Example 1, 3-[[4-hydroxy-1-[trans-2-(3-thienyl)cyclohexanecarbonyl]-4-piperidyl]methyl]pyrido[3,2-d]pyrimidin-4-one]
10 | 72.3 nM | COc1ccc(-n2ccc3c(=O)n(CC4(O)CCN(C(=O)[C@@H]5C(C)=CCC[C@H]5c5ccsc5)CC4)cnc32)cc1 (single isomer, unassigned) [Example 61, 3-[[4-hydroxy-1-[trans-2-methyl-6-(3-thienyl)cyclohex-2-ene-1-carbonyl]-4-piperidyl]methyl]-7-(4-methoxyphenyl)pyrrolo[2,3-d]pyrimidin-4-one]
11 | 100 nM | O=C(CC1CCCO1)Nc1ccc2ncn(CC3(O)CCN(C(=O)[C@@H]4CCCC[C@H]4c4ccccc4)CC3)c(=O)c2n1 (relative stereo) [Example 106, N-[3-[[4-hydroxy-1-(trans-2-phenylcyclohexanecarbonyl)-4-piperidyl]methyl]-4-oxo-pyrido[3,2-d]pyrimidin-6-yl]-2-tetrahydrofuran-2-yl-acetamide]
12 | 2900 nM | COc1ccc(-n2ccc3c(=O)n(CC4(O)CCN(C(=O)[C@@H]5CCC(F)(F)C[C@H]5c5ccoc5)CC4)cnc32)cc1 (relative stereo) [Example 74, 3-[[1-[trans-4,4-difluoro-2-(3-fury)cyclohexanecarbonyl]-4-hydroxy-4-piperidyl]methyl]-7-(4-methoxyphenyl)pyrrolo[2,3-d]pyrimidin-4-one]
13 | 632 nM | O=C([C@@H]1CCC(F)(F)C[C@H]1c1cscn1)N1CCC(O)(Cn2cnc3c(-c4ccccc4)scc3c2=O)CC1 (single isomer, unassigned) [Example 83, 3-[[1-[trans-4,4-difluoro-2-thiazol-4-yl-cyclohexanecarbonyl]-4-hydroxy-4-piperidyl]methyl]-7-phenyl-thieno[3,4-d]pyrimidin-4-one]
14 | 456 nM | CC(C)n1ccc2c(=O)n(CC3(O)CCN(C(=O)[C@@H]4CCC(F)(F)C[C@H]4c4ccccc4)CC3)cnc21 (single isomer, unassigned) [Example 113, 3-[[1-[trans-4,4-difluoro-2-phenyl-cyclohexanecarbonyl]-4-hydroxy-4-piperidyl]methyl]-7-isopropyl-pyrrolo[2,3-d]pyrimidin-4-one]
15 | 11100 nM | O=C([C@@H]1CCCC[C@H]1n1cccc1)N1CCC(O)(Cn2cnc3c(ccn3-c3ccccc3)c2=O)CC1 (single isomer, unassigned) [Example 13, 3-[[4-hydroxy-1-[trans-2-pyrrol-1-ylcyclohexanecarbonyl]-4-piperidyl]methyl]-7-phenyl-pyrrolo[2,3-d]pyrimidin-4-one]
16 | 205 nM | O=C([C@@H]1CCC(F)(F)C[C@H]1c1ccccc1)N1CCC(O)(Cn2cnc3c(ccn3C3CC3)c2=O)CC1 (single isomer, unassigned) [Example 116, 7-cyclopropyl-3-[[1-[trans-4,4-difluoro-2-phenyl-cyclohexanecarbonyl]-4-hydroxy-4-piperidyl]methyl]pyrrolo[2,3-d]pyrimidin-4-one]
17 | 2750 nM | COc1ccc(-n2ccc3c(=O)n(CC4(O)CCN(C(=O)[C@@H]5CCCO[C@H]5c5ccccc5)CC4)cnc32)cc1 (single isomer, unassigned) [Example 44, 3-[[4-hydroxy-1-[trans-2-phenyltetrahydropyran-3-carbonyl]-4-piperidyl]methyl]-7-(4-methoxyphenyl)pyrrolo[2,3-d]pyrimidin-4-one]
18 | 471 nM | Cn1ccc2c(=O)n(CC3(O)CCN(C(=O)[C@@H]4CCC(F)(F)C[C@H]4c4ccccc4)CC3)cnc21 (single isomer, unassigned) [Example 112, 3-[[1-[trans-4,4-difluoro-2-phenyl-cyclohexanecarbonyl]-4-hydroxy-4-piperidyl]methyl]-7-methyl-pyrrolo[2,3-d]pyrimidin-4-one]
19 | 425 nM | COc1ccc(-n2ccc3c(=O)n(CC4(O)CCN(C(=O)C5CCCCN5c5ccccc5)CC4)cnc32)cc1 (stereo not shown) [Example 10, 3-[[4-hydroxy-1-(1-phenylpiperidine-2-carbonyl)-4-piperidyl]methyl]-7-(4-methoxyphenyl)pyrrolo[2,3-d]pyrimidin-4-one]
